# Like-named read-outs stand apart in the source and are kept apart here. Where a SMILES comes first, the peptide text is derived from it. Bridges are numbered along the chain shown (N, C = ends). [ ]: non-standard residue; d: D form. The star is where a group is joined. hPhe(3-Cl-4-CF3) = N[C@@H](CCc1ccc(C(F)(F)F)c(Cl)c1)C(=O)O; NPrPhe(4-CF3) = CCCN[C@@H](Cc1ccc(C(F)(F)F)cc1)C(=O)O; NMeGly(cPent) = CN[C@H](C(=O)O)C1CCCC1; NMeD = CN[C@@H](CC(=O)O)C(=O)O; NMeL = CN[C@@H](CC(C)C)C(=O)O; Morpholide = C1CN(*)CCO1; Aze = O=C(O)[C@@H]1CCN1; Ac4c = NC1(C(=O)O)CCC1; Sar = CNCC(=O)O
# Key:
# [1] = target: GDP-bound KRAS wild-type protein (Homo sapiens, UniProt P01116); assay: Binding to KRAS by surface plasmon resonance (SPR), Single Cycle Kinetics; conditions: GDP-bound KRAS wild-type protein, read-out: KRAS KD
# Sequence of GDP-bound KRAS wild-type protein (P01116 whole entry): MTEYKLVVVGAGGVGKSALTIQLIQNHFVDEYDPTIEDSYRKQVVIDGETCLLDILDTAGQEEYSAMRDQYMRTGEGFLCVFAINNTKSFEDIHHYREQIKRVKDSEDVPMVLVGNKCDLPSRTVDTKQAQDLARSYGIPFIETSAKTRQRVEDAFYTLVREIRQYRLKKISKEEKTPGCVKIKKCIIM
# [2] = target: GDP-bound NRAS wild-type protein (Homo sapiens, UniProt P01111); assay: Binding to NRAS by surface plasmon resonance (SPR), Single Cycle Kinetics; conditions: for NRAS/KRAS (ratio of KD value for NRAS to KD value for KRAS): SPR, GDP-bound NRAS wild-type protein vs GDP-bound KRAS wild-type protein
# Sequence of GDP-bound NRAS wild-type protein (P01111 whole entry): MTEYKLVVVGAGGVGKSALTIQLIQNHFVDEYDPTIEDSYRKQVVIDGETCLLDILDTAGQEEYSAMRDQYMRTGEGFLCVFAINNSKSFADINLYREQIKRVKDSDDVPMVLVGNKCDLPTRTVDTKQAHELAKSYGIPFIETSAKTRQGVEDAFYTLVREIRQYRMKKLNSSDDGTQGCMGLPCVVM
# [3] = target: GDP-bound HRAS wild-type protein (Homo sapiens, UniProt P01112); assay: Binding to HRAS by surface plasmon resonance (SPR), Single Cycle Kinetics; conditions: for HRAS/KRAS (ratio of KD value for HRAS to KD value for KRAS): SPR, GDP-bound HRAS wild-type protein vs GDP-bound KRAS wild-type protein
# Sequence of GDP-bound HRAS wild-type protein (P01112 whole entry): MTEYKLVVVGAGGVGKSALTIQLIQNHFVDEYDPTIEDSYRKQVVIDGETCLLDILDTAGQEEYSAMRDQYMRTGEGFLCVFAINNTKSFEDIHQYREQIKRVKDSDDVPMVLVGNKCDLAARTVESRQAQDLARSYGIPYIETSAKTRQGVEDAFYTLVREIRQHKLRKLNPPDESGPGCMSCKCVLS
# [4] = tested on: human lung cancer strain NCI-H441;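 also: cell proliferation inhibition after four days measured by CellTiter-Glo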
# [5] = SPR Single Cycle Kinetics, 1:1 binding model
# [6] = SPR, Single Cycle Kinetics, 1:1 binding model
SMILES,"Kd [1, 5]",IC50 [4],"Kd ([1]; SPR, Single Cycle Kinetics)","Kd [1, 6]","NRAS/KRAS (ratio of KD value with respect to GDP-bound NRAS wild-type protein to KD value with respect to KRAS) ([2]; SPR KD ratio NRAS/KRAS, class symbols)","HRAS/KRAS (ratio of KD value with respect to GDP-bound HRAS wild-type protein to KD value with respect to KRAS) ([3]; SPR KD ratio HRAS/KRAS, class symbols)",NRAS/KRAS (ratio of KD value for NRAS to KD value for KRAS) [2],HRAS/KRAS (ratio of KD value for HRAS to KD value for KRAS) [3],NRAS/KRAS (ratio of KD value for NRAS to KD value for KRAS) ([2]; KD ratio class),HRAS/KRAS (ratio of KD value for HRAS to KD value for KRAS) ([3]; KD ratio class)
CCO[C@@H]1C[C@H]2C(=O)NC3(CCC3)C(=O)N(C)[C@@H](C3CCCC3)C(=O)N(C)[C@H](C(=O)N(C)C)CC(=O)N(C)[C@@H](Cc3ccc(F)c(F)c3)C(=O)N[C@@H]([C@@H](C)CC)C(=O)N(C)CC(=O)N(C)[C@H]3CCCCCN(C3=O)[C@@H](Cc3ccc(C(F)(F)F)cc3)C(=O)N(C)CC(=O)N[C@@H](CCc3cc(F)c(C(F)(F)F)c(F)c3)C(=O)N2C1 [PP0937],,39 nM,1 nM,,,,B (a compound having 3 or more and less than 10 is denoted as B),B (a compound having 3 or more and less than 10 is denoted as B),,
CC[C@H](C)[C@@H]1NC(=O)[C@H](CC2CCC2)N(C)C(=O)C[C@@H](C(=O)N(C)C)N(C)C(=O)[C@H](C2CCCC2)N(C)C(=O)C2(CCCC2)NC(=O)[C@@H]2CCCN2C(=O)[C@H](CCc2ccc(C(F)(F)F)c(Cl)c2)NC(=O)CN(C)C(=O)[C@H](Cc2ccc(C(F)(F)F)cc2)N2C[C@H](C)CC[C@@H](C2=O)N(C)C(=O)CN(C)C1=O [PP1342],,5 nM,,0.091 nM,,,,,B (a compound having 3 or more and less than 10 is denoted as B),B (a compound having 3 or more and less than 10 is denoted as B)
CCCN1C(=O)[C@@H]2CCN2C(=O)CN(C)C(=O)[C@H]([C@@H](C)CC)NC(=O)[C@H](CC(C)C)N(C)C(=O)C[C@@H](C(=O)N2CCOCC2)N(C)C(=O)[C@H](C2CCCC2)N(C)C(=O)C2(CCC2)NC(=O)[C@@H]2CCCN2C(=O)[C@H](CCc2ccc(C(F)(F)F)c(Cl)c2)NC(=O)CN(C)C(=O)[C@@H]1Cc1ccc(C(F)(F)F)cc1 [PP0407] ([NMeL]I[Sar][Aze][NPrPhe(4-CF3)][Sar][hPhe(3-Cl-4-CF3)]P[Ac4c][NMeGly(cPent)][NMeD]-Morpholide; lactam N-11),0.11 nM,7.6 nM,,,,,C (A compound having a KD ratio of 0.1 or more and less than 3 is denoted as C),B (a compound having 3 or more and less than 10 is denoted as B),,
CCO[C@@H]1C[C@H]2C(=O)NC3(CCC3)C(=O)N(C)[C@@H](C3CCCC3)C(=O)N(C)[C@H](C(=O)N3CCCC3)CC(=O)N(C)[C@@H](CC3CCCC3)C(=O)N[C@@H]([C@@H](C)CC)C(=O)N(C)CC(=O)N(C)[C@H]3C/C=C\CCN(C3=O)[C@@H](Cc3ccc(F)cc3)C(=O)N(C)CC(=O)N[C@@H](CCc3ccc4sccc4c3)C(=O)N2C1 [PP1391],,271 nM,,1.6 nM,,,,,A (a compound having 10 or more and less than 20 is denoted as A),A (a compound having 10 or more and less than 20 is denoted as A)

# More lines, main results first:
"Kd [1, 5]",IC50 [4],"Kd ([1]; SPR, Single Cycle Kinetics)","Kd [1, 6]",SMILES,"NRAS/KRAS (ratio of KD value with respect to GDP-bound NRAS wild-type protein to KD value with respect to KRAS) ([2]; SPR KD ratio NRAS/KRAS, class symbols)","HRAS/KRAS (ratio of KD value with respect to GDP-bound HRAS wild-type protein to KD value with respect to KRAS) ([3]; SPR KD ratio HRAS/KRAS, class symbols)",NRAS/KRAS (ratio of KD value for NRAS to KD value for KRAS) [2],HRAS/KRAS (ratio of KD value for HRAS to KD value for KRAS) [3],NRAS/KRAS (ratio of KD value for NRAS to KD value for KRAS) ([2]; KD ratio class),HRAS/KRAS (ratio of KD value for HRAS to KD value for KRAS) ([3]; KD ratio class)
1.3 nM,174 nM,,,CC[C@H](C)[C@@H]1NC(=O)[C@H](COC)N(C)C(=O)C[C@@H](C(=O)N(C)C)N(C)C(=O)[C@H](C2CCCC2)N(C)C(=O)C2(CC(C)(C)C2)NC(=O)[C@@H]2C[C@@H](OC3CCC3)CN2C(=O)[C@H](CCc2ccc(Cl)c(Cl)c2)NC(=O)CN(C)C(=O)[C@H](CC2CCC(F)(F)CC2)N2CC/C=C\C[C@@H](C2=O)N(C)C(=O)CN(C2CC2)C1=O [PP2624],A (a compound having 10 or more and less than 20 is denoted as A),A (a compound having 10 or more and less than 20 is denoted as A),,,,
,41.9 nM,0.64 nM,,CCOC[C@H]1C(=O)N[C@@H]([C@@H](C)CC)C(=O)N(C)CC(=O)N(C)[C@H]2C/C=C\CCN(C2=O)[C@@H](CC2CCCCC2)C(=O)N(C)CC(=O)N[C@@H](CCc2ccc(C(F)(F)F)c(OC)c2)C(=O)N2C[C@@H](C)C[C@H]2C(=O)N(C)C2(CCC2)C(=O)N(C)[C@@H](C2CCCC2)C(=O)N(C)[C@H](C(=O)N(C)C)CC(=O)N1C [PP2371],,,A (a compound having 10 or more and less than 20 is denoted as A),B (a compound having 3 or more and less than 10 is denoted as B),,

# From US20240158446A1, “CYCLIC COMPOUND HAVING SELECTIVE INHIBITORY ACTION ON KRAS OVER HRAS AND NRAS” (CHUGAI SEIYAKU KABUSHIKI KAISHA, priority 2021, published 2024)
